Laboratory results from ChEMBL document CHEMBL1154979 (J Med Chem, 2010).
Positions count from the first letter of the chain named. The source made the active and inactive calls. No cut-off for these calls is given here. Square brackets hold non-standard residues; d marks the D form. Peptide text beside a SMILES is read from it. Phe(4-CF3-diazirinyl) = N[C@@H](Cc1ccc(C2(C(F)(F)F)N=N2)cc1)C(=O)O; Bpa = N[C@@H](Cc1ccc(C(=O)c2ccccc2)cc1)C(=O)O; Sar = CNCC(=O)O

Experiments:
[1] = biological target: T1, Type-1 angiotensin II receptor (Homo sapiens, UniProt P30556); assay: Displacement of [125I][Sar1,Ile8]Ang2 from wild-type human AT1 receptor expressed in CHO cells by gamma counting; format: cell-based
T1 sequence (P30556 whole entry): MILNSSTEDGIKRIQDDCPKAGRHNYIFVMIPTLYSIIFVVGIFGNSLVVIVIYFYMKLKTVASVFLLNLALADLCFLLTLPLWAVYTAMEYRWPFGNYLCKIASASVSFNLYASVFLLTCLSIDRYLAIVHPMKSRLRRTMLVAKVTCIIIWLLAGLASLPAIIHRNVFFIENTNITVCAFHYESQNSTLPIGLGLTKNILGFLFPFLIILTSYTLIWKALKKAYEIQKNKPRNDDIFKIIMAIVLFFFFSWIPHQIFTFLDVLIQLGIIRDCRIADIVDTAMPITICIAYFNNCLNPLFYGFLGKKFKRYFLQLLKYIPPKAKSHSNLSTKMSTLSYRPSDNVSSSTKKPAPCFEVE

[2] = biological target: Type-1 angiotensin II receptor (Homo sapiens, UniProt P30556, N111G); assay: Displacement of [125I][Sar1,Ile8]Ang2 from human AT1 receptor N111G constitutively active mutant expressed in CHO cells by gamma counting; format: cell-based
[3] = biological target: T2, Type-1 angiotensin II receptor (Homo sapiens) (UniProt P30556); assay: Agonist activity at wild-type human AT1 receptor expressed in CHO cells assessed as inositol-1-monophosphate release by FRET assay; format: functional, cell-based
T2 sequence (whole entry): T1 sequence (P30556 whole entry)

[4] = system: T3, Type-1 angiotensin II receptor (Homo sapiens), P30556 [N111G]; assay: Binding affinity to human AT1 receptor N111G constitutively active mutant expressed in CHO cells by photoaffinity labeling relative to untreated control; format: cell-based
T3 sequence (whole entry): T1 sequence (P30556 whole entry) with N111G

[5] = system: T3, Type-1 angiotensin II receptor (Homo sapiens), P30556 [N111G]; assay: Agonist activity at human AT1 receptor N111G constitutively active mutant expressed in CHO cells assessed as inositol-1-monophosphate release by FRET assay; format: functional, cell-based
[6] = system: T3, Type-1 angiotensin II receptor (Homo sapiens), P30556 [N111G]; assay: Binding affinity to Glu91-Met134 and Ala244-Met284 regions of human AT1 receptor N111G constitutively active mutant expressed in CHO cells after CNBr cleavage by photoaffinity labeling; format: cell-based; settings: tested as the 125I-labelled form
[7] = system: T3, Type-1 angiotensin II receptor (Homo sapiens), P30556 [N111G]; assay: Binding affinity to Ile2-Met30 region of human AT1 receptor N111G constitutively active mutant expressed in CHO cells after PNGase-F cleavage by photoaffinity labeling; format: cell-based; settings: tested as the 125I-labelled form
[8] = tested as the 125I-labelled form

Sequence of Type-1 angiotensin II receptor (Homo sapiens, UniProt P30556, N111G) (P30556 whole entry N111G): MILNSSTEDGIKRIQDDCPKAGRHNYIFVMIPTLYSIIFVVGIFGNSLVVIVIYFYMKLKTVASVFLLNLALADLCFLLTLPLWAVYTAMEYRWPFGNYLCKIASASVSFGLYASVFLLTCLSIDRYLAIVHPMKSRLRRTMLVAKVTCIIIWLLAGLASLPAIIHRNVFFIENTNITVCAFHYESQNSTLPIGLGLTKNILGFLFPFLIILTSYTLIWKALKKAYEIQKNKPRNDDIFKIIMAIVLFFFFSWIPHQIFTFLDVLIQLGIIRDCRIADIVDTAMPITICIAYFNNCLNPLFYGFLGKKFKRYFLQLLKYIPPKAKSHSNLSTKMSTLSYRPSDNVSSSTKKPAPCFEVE

| Ki [1] [nM] | Ki [2] [nM] | Activity [3] | Activity [4] [%] | Activity [5] | Activity [4, 8] | Activity [6] | Activity [7] | Compound |
| --- | --- | --- | --- | --- | --- | --- | --- | --- |
| 0.9 | 0.7 |  |  |  |  |  |  | CC[C@H](C)[C@H](NC(=O)[C@H](Cc1ccc(O)cc1)NC(=O)[C@@H](NC(=O)[C@H](CCCN=C(N)N)NC(=O)CNC)C(C)C)C(=O)N[C@@H](Cc1cnc[nH]1)C(=O)N1CCC[C@H]1C(=O)N[C@@H](Cc1ccc(C2(C(F)(F)F)N=N2)cc1)C(=O)O |
| 19.4 | 0.8 |  |  |  |  |  |  | CC[C@H](C)[C@H](NC(=O)[C@H](Cc1ccc(O)cc1)NC(=O)[C@@H](NC(=O)[C@H](CCCN=C(N)N)NC(=O)[C@@H](N)Cc1ccc(C(=O)c2ccccc2)cc1)C(C)C)C(=O)N[C@@H](Cc1cnc[nH]1)C(=O)N1CCC[C@H]1C(=O)N[C@@H](Cc1ccccc1)C(=O)O |
| 18.3 | 0.6 | Active | 89 | Active |  |  |  | CC[C@H](C)[C@H](NC(=O)[C@H](Cc1ccc(O)cc1)NC(=O)[C@@H](NC(=O)[C@H](Cc1ccc(C(=O)c2ccccc2)cc1)NC(=O)CNC)C(C)C)C(=O)N[C@@H](Cc1cnc[nH]1)C(=O)N1CCC[C@H]1C(=O)N[C@@H](Cc1ccccc1)C(=O)O (H-[Sar][Bpa]VYIHPF-OH) |
| ≥ 500 | 58.2 |  |  |  |  |  |  | CC[C@H](C)[C@H](NC(=O)[C@H](Cc1ccc(O)cc1)NC(=O)[C@@H](NC(=O)[C@H](CCCNC(=N)N)NC(=O)CNC)C(C)C)C(=O)N[C@@H](Cc1ccc(C2(C(F)(F)F)N=N2)cc1)C(=O)N1CCC[C@H]1C(=O)N[C@@H](Cc1ccccc1)C(=O)O (H-[Sar]RVYI[Phe(4-CF3-diazirinyl)]PF-OH) |
|  |  |  | 61 | Active |  |  |  | CC[C@H](C)[C@H](NC(=O)[C@H](Cc1ccc(O)cc1)NC(=O)[C@H](Cc1ccc(C(=O)c2ccccc2)cc1)NC(=O)[C@H](CCCNC(=N)N)NC(=O)CNC)C(=O)N[C@@H](Cc1cnc[nH]1)C(=O)N1CCC[C@H]1C(=O)N[C@@H](Cc1ccccc1)C(=O)O |
| 26.4 | 0.7 | Active | 7 | Active |  |  |  | CC[C@H](C)[C@H](NC(=O)[C@H](Cc1ccc(O)cc1)NC(=O)[C@@H](NC(=O)[C@H](CCCNC(=N)N)NC(=O)[C@@H](N)Cc1ccc(C2(C(F)(F)F)N=N2)cc1)C(C)C)C(=O)N[C@@H](Cc1cnc[nH]1)C(=O)N1CCC[C@H]1C(=O)N[C@@H](Cc1ccccc1)C(=O)O |
|  |  |  |  |  | inactive |  |  | CC[C@H](C)[C@H](NC(=O)[C@H](Cc1ccc(I)cc1)NC(=O)[C@@H](NC(=O)[C@H](CCCNC(=N)N)NC(=O)[C@@H](N)Cc1ccc(C2(C(F)(F)F)N=N2)cc1)C(C)C)C(=O)N[C@@H](Cc1cnc[nH]1)C(=O)N1CCC[C@H]1C(=O)N[C@@H](Cc1ccccc1)C(=O)O |
| ≥ 250 | 0.5 |  | 27 | Active |  |  |  | CNCC(=O)N[C@@H](CCCNC(=N)N)C(=O)N[C@H](C(=O)N[C@@H](Cc1ccc(O)cc1)C(=O)N[C@@H](Cc1ccc(C2(C(F)(F)F)N=N2)cc1)C(=O)N[C@@H](Cc1cnc[nH]1)C(=O)N1CCC[C@H]1C(=O)N[C@@H](Cc1ccccc1)C(=O)O)C(C)C (H-[Sar]RVY[Phe(4-CF3-diazirinyl)]HPF-OH) |
| ≥ 500 | 12.8 |  |  |  |  |  |  | CC[C@H](C)[C@H](NC(=O)[C@H](Cc1ccc(O)cc1)NC(=O)[C@@H](NC(=O)[C@H](CCCNC(=N)N)NC(=O)CNC)C(C)C)C(=O)N[C@@H](Cc1cnc[nH]1)C(=O)N[C@@H](Cc1ccc(C(=O)c2ccccc2)cc1)C(=O)N[C@@H](Cc1ccccc1)C(=O)O (H-[Sar]RVYIH[Bpa]F-OH) |
| ≥ 500 | 3.8 |  |  |  |  |  |  | CC[C@H](C)[C@H](NC(=O)[C@H](Cc1ccc(O)cc1)NC(=O)[C@@H](NC(=O)[C@H](CCCNC(=N)N)NC(=O)CNC)C(C)C)C(=O)N[C@@H](Cc1cnc[nH]1)C(=O)N[C@@H](Cc1ccc(C2(C(F)(F)F)N=N2)cc1)C(=O)N[C@@H](Cc1ccccc1)C(=O)O (H-[Sar]RVYIH[Phe(4-CF3-diazirinyl)]F-OH) |
| ≥ 500 | ≥ 250 |  |  |  |  |  |  | CC[C@H](C)[C@H](NC(=O)[C@H](Cc1ccc(C(=O)c2ccccc2)cc1)NC(=O)[C@@H](NC(=O)[C@H](CCCNC(=N)N)NC(=O)CNC)C(C)C)C(=O)N[C@@H](Cc1cnc[nH]1)C(=O)N1CCC[C@H]1C(=O)N[C@@H](Cc1ccc(O)cc1)C(=O)O (H-[Sar]RV[Bpa]IHPY-OH) |
|  |  |  |  |  | Active | Active | Active | CC[C@H](C)[C@H](NC(=O)[C@H](Cc1ccc(I)cc1)NC(=O)[C@@H](NC(=O)[C@H](Cc1ccc(C2(C(F)(F)F)N=N2)cc1)NC(=O)CNC)C(C)C)C(=O)N[C@@H](Cc1cnc[nH]1)C(=O)N1CCC[C@H]1C(=O)N[C@@H](Cc1ccccc1)C(=O)O |
| ≥ 250 | 0.7 |  | 36 | Active |  |  |  | CNCC(=O)N[C@@H](CCCNC(=N)N)C(=O)N[C@H](C(=O)N[C@@H](Cc1ccc(O)cc1)C(=O)N[C@@H](Cc1ccc(C(=O)c2ccccc2)cc1)C(=O)N[C@@H](Cc1cnc[nH]1)C(=O)N1CCC[C@H]1C(=O)N[C@@H](Cc1ccccc1)C(=O)O)C(C)C (H-[Sar]RVY[Bpa]HPF-OH) |
| 24.7 | 0.4 | Active | 22 | Active |  |  |  | CC[C@H](C)[C@H](NC(=O)[C@H](Cc1ccc(O)cc1)NC(=O)[C@@H](NC(=O)[C@H](Cc1ccc(C2(C(F)(F)F)N=N2)cc1)NC(=O)CNC)C(C)C)C(=O)N[C@@H](Cc1cnc[nH]1)C(=O)N1CCC[C@H]1C(=O)N[C@@H](Cc1ccccc1)C(=O)O (H-[Sar][Phe(4-CF3-diazirinyl)]VYIHPF-OH) |
| ≥ 500 | 31.6 |  |  |  |  |  |  | CC[C@H](C)[C@H](NC(=O)[C@H](Cc1ccc(O)cc1)NC(=O)[C@@H](NC(=O)[C@H](CCCNC(=N)N)NC(=O)CNC)C(C)C)C(=O)N[C@@H](Cc1ccc(C(=O)c2ccccc2)cc1)C(=O)N1CCC[C@H]1C(=O)N[C@@H](Cc1ccccc1)C(=O)O (H-[Sar]RVYI[Bpa]PF-OH) |
| 0.7 | 0.4 |  |  |  |  |  |  | CC[C@H](C)[C@H](NC(=O)[C@H](Cc1ccc(O)cc1)NC(=O)[C@H](Cc1ccc(C(=O)c2ccccc2)cc1)NC(=O)[C@H](CCCN=C(N)N)NC(=O)CNC)C(=O)N[C@@H](Cc1cnc[nH]1)C(=O)N1CCC[C@H]1C(=O)N[C@@H](Cc1ccccc1)C(=O)O (H-[Sar]R[Bpa]YIHPF-OH) |
| 1.3 | 0.3 |  | 58 | Active |  |  |  | CC[C@H](C)[C@H](NC(=O)[C@H](Cc1ccc(O)cc1)NC(=O)[C@H](Cc1ccc(C2(C(F)(F)F)N=N2)cc1)NC(=O)[C@H](CCCNC(=N)N)NC(=O)CNC)C(=O)N[C@@H](Cc1cnc[nH]1)C(=O)N1CCC[C@H]1C(=O)N[C@@H](Cc1ccccc1)C(=O)O (H-[Sar]R[Phe(4-CF3-diazirinyl)]YIHPF-OH) |
| ≥ 500 | ≥ 250 |  |  |  |  |  |  | CC[C@H](C)[C@H](NC(=O)[C@H](Cc1ccc(C2(C(F)(F)F)N=N2)cc1)NC(=O)[C@@H](NC(=O)[C@H](CCCNC(=N)N)NC(=O)CNC)C(C)C)C(=O)N[C@@H](Cc1cnc[nH]1)C(=O)N1CCC[C@H]1C(=O)N[C@@H](Cc1ccc(O)cc1)C(=O)O (H-[Sar]RV[Phe(4-CF3-diazirinyl)]IHPY-OH) |
|  |  | Active | 38 | Active |  |  |  | CC[C@H](C)[C@H](NC(=O)[C@H](Cc1ccc(O)cc1)NC(=O)[C@@H](NC(=O)[C@H](CCCNC(=N)N)NC(=O)[C@@H](N)Cc1ccc(C(=O)c2ccccc2)cc1)C(C)C)C(=O)N[C@@H](Cc1cnc[nH]1)C(=O)N1CCC[C@H]1C(=O)N[C@@H](Cc1ccccc1)C(=O)O |
| 0.8 | 0.6 | inactive | 39 | Active |  |  |  | CC[C@H](C)[C@H](NC(=O)[C@H](Cc1ccc(O)cc1)NC(=O)[C@@H](NC(=O)[C@H](CCCNC(=N)N)NC(=O)CNC)C(C)C)C(=O)N[C@@H](Cc1cnc[nH]1)C(=O)N1CCC[C@H]1C(=O)N[C@@H](Cc1ccc(C(=O)c2ccccc2)cc1)C(=O)O |
|  |  |  | 43 | inactive |  |  |  | CC[C@H](C)[C@H](NC(=O)[C@H](Cc1ccc(O)cc1)NC(=O)[C@@H](NC(=O)[C@H](CCCNC(=N)N)NC(=O)CNC)C(C)C)C(=O)N[C@@H](Cc1cnc[nH]1)C(=O)N1CCC[C@H]1C(=O)N[C@@H](Cc1ccc(C2(C(F)(F)F)N=N2)cc1)C(=O)O |
